PubChem BioAssay AID1996
Values after ≈ are worked out from the molar mass of the structure shown.

Settings: buffer; pH 7.4; 200.0 µM

First: COCC(C)n1c(SCC(=O)NC2CCCCC2C)nc2ccccc2c1=O (centres undefined)
Second: Cc1cc(C(=O)NCCC(C)C)c2ccccc2n1
The solubility kinetic of the first is higher: greater than 60.5 µg/mL for the first, 31 µg/mL (≈ 121 µM) for the second.

Compared with `Cc1ccsc1CNCCc1ccc(F)cc1`, `O=C(Nc1ccc(F)cc1)c1cncs1` is higher in solubility kinetic: 27.1 µg/mL (≈ 109 µM) for the first, greater than 33.3 µg/mL for the second.

Going from `O=C(COC(=O)c1c[nH]c2ccccc12)NC1CCCCC1` to `CCOc1ccccc1NC(=O)NC1CCCCCCC1`, the solubility kinetic falls from 13.4 µg/mL (≈ 44.6 µM) to 0.4 µg/mL (≈ 1.38 µM) (34-fold).

First: S=C(Nc1ccccc1)N1CCN(Cc2ccccc2)CC1
Second: CN1CCN(c2ccc(NC(=O)c3cc4ccccc4o3)cc2)CC1
The solubility kinetic of the first is higher: greater than 46.7 µg/mL for the first, 19.6 µg/mL (≈ 58.4 µM) for the second.

Compared with `O=S(=O)(c1ccc(F)cc1)N1CCN(CCOc2ccccc2)CC1`, `COc1ccc(S(=O)(=O)N2CN3CCN(C3)C2)cc1` is higher in solubility kinetic: 41.1 µg/mL (≈ 113 µM) for the first, greater than 42.5 µg/mL for the second.

`O=C(O)Cc1ccc2oc(-c3ccccn3)nc2c1` and `CC(=O)Nc1ccc(Cl)c(-c2nc3ncccc3o2)c1` cannot be ordered by solubility kinetic: greater than 38.1 µg/mL for the first, 41.5 µg/mL (≈ 144 µM) for the second.

`CCC(C)Nc1nc(N)c([N+](=O)[O-])c(NC2CCCCC2)n1` (centres undefined) and `CCOC(=O)c1c(NC(=O)CNC2CCCCC2)sc(C)c1C` cannot be ordered by solubility kinetic: less than 0.1 µg/mL for the first, less than 0.4 µg/mL for the second.

Compared with `O=[N+]([O-])c1cccnc1SCc1ccccc1`, `O=C(O)CCc1[nH]c2ccccc2c1Sc1ccccc1` is higher in solubility kinetic: 0.3 µg/mL (≈ 1.22 µM) for the first, greater than 44.6 µg/mL for the second.

Compared with `N#CCCSc1ccccc1NC(=O)c1cc(=O)c2ccccc2o1`, `O=C(O)Cn1cc(C(=O)c2ccccc2F)c2ccccc21` is 20-fold higher in solubility kinetic: 2.2 µg/mL (≈ 6.28 µM) for the first, 44.5 µg/mL (≈ 150 µM) for the second.

Going from `Cc1ccc(C(=O)OCC(=O)Nc2ccc(F)c(Cl)c2)o1` to `O=C(CNC(=O)OCc1ccccc1)Nc1ccc(F)cc1`, the solubility kinetic rises from 2.9 µg/mL (≈ 9.3 µM) to 10.3 µg/mL (≈ 34.1 µM) (3.6-fold).

Going from `CC(C)c1nc2oc3c(N(C)CCO)ncnc3c2c2c1CCC2` to `CC1CCc2c(sc3ncnc(SCC(=O)N(C)C4CCS(=O)(=O)C4)c23)C1` (centres undefined), the solubility kinetic rises from 0.9 µg/mL (≈ 2.76 µM) to 3.3 µg/mL (≈ 7.75 µM) (3.7-fold).

Going from `CCOC(=O)C1(CC2CC2)CCN(Cc2ccc(C(=O)OC)cc2)CC1` to `CC1CCCC(NC(=O)COC(=O)[C@@H](NC(=O)c2ccc(F)cc2)C(C)C)C1C` (some centres undefined), the solubility kinetic falls from 42.8 µg/mL (≈ 119 µM) to 8.7 µg/mL (≈ 21.4 µM) (4.9-fold).

`O=C(COC(=O)Cc1ccc(S(=O)(=O)N2CCOCC2)s1)Nc1ccccc1` and `O=C(CS(=O)(=O)c1ccccc1Cl)N1CCOCC1` are within 1.5-fold of each other in solubility kinetic: 57 µg/mL (≈ 134 µM) for the first, 43.8 µg/mL (≈ 144 µM) for the second.

`Cc1ccccc1C(=O)c1cccn1CC(=O)NCc1ccccc1` and `O=C(Nc1ccccc1O)/C(=C\c1ccccc1)NC(=O)c1ccccc1` are within 1.5-fold of each other in solubility kinetic: 12.7 µg/mL (≈ 38.2 µM) for the first, 14.9 µg/mL (≈ 41.6 µM) for the second.

Going from `Cc1ccccc1NC(=O)Cc1cccc(C(F)(F)F)c1` to `CCc1ccccc1Nc1nc2ccccc2[nH]1`, the solubility kinetic rises from 5.3 µg/mL (≈ 18.1 µM) to 33.2 µg/mL (≈ 140 µM) (6.3-fold).

`COC(=O)c1ccccc1NC(=O)Cn1cnc([N+](=O)[O-])c1` and `O=C(Cn1cncn1)N/N=C/c1ccccc1O` cannot be ordered by solubility kinetic: greater than 45.6 µg/mL for the first, greater than 36.8 µg/mL for the second.

Compared with `Cc1cc(C(=O)NCC2CCCCC2)ccc1[N+](=O)[O-]`, `COc1cccc(CN(C)C(=O)c2cc(S(=O)(=O)NC3CCCCC3)ccc2C)c1` is 20-fold higher in solubility kinetic: 2.3 µg/mL (≈ 8.32 µM) for the first, 45.3 µg/mL (≈ 105 µM) for the second.

Going from `Cc1ccc2nsnc2c1S(=O)(=O)N1CCN(C)CC1` to `Cc1cc(C)c(C)c(S(=O)(=O)N2CCSCC2)c1C`, the solubility kinetic falls from 45.5 µg/mL (≈ 146 µM) to less than 0.6 µg/mL.

`Cc1ccc(N2C(=O)[C@@H]3C(c4cccnc4)=NO[C@@H]3C2=O)c(C)c1` and `O=C1C2C3CCC(O3)C2C(=O)N1c1cccc(O)c1` (centres undefined) cannot be ordered by solubility kinetic: greater than 48.2 µg/mL for the first, greater than 38.9 µg/mL for the second.

Going from `CN1/C(=C/C=C(C#N)C#N)C=Cc2ccccc21` to `CCc1c(C)nc(N2CCN(c3ccccc3F)CC2)[nH]c1=O`, the solubility kinetic rises from 1.1 µg/mL (≈ 4.72 µM) to 5.6 µg/mL (≈ 17.7 µM) (5.1-fold).

First: COc1ccc(-c2nnc(SCC(=O)O)n2C)cc1OC
Second: COc1ccc(C(=O)OCC(=O)Nc2sccc2C(N)=O)cc1OC
The solubility kinetic of the first is higher: greater than 46.4 µg/mL for the first, 1 µg/mL (≈ 2.74 µM) for the second.

Compared with `Cc1cccn2c(=O)c3cc(C(=O)N4COCC4(C)C)sc3nc12`, `CC(Sc1nc(-c2ccco2)nc2c1c(=O)n(C)c(=O)n2C)C(=O)O` (centres undefined) is higher in solubility kinetic: 9.2 µg/mL (≈ 26.8 µM) for the first, greater than 54.4 µg/mL for the second.

Going from `CN(CCC#N)C(=O)CC1(Cc2ccccc2)CCOC(C)(C)C1` (centres undefined) to `CCOC(=O)c1cc(C#N)c(C)nc1N(CC)CC`, the solubility kinetic falls from greater than 49.3 µg/mL to 16.4 µg/mL (≈ 62.8 µM).

First: COC(=O)c1cc(OC)c(OC)cc1NC(=O)CSCc1c(C)noc1C
Second: COc1ccc2c(CC(=O)NNC(=O)c3ccc(O)cc3)coc2c1
The solubility kinetic of the first is lower: 15.6 µg/mL (≈ 39.5 µM) for the first, greater than 51.1 µg/mL for the second.

Going from `COC(=O)/C(=C\C=C\c1ccccc1)NC(=O)c1ccccc1` to `Oc1ccc2ccccc2c1C=Nc1ccccc1Br`, the solubility kinetic falls from 6.3 µg/mL (≈ 20.5 µM) to less than 0.7 µg/mL.

`CC(=O)Nc1nc2c(s1)C(=O)NCC(C)(C)C2` and `O=C1NC(=O)C(c2ccc(Cl)cc2)N1` (centres undefined) cannot be ordered by solubility kinetic: greater than 38 µg/mL for the first, greater than 31.6 µg/mL for the second.

`NC(CSCc1ccccc1Cl)C(=O)O` (centres undefined) and `CCc1nc2cccnc2n1-c1ccc(C(=O)O)cc1` cannot be ordered by solubility kinetic: greater than 36.9 µg/mL for the first, greater than 40.1 µg/mL for the second.

`O=C(NC1CCCCC1)C1CCC(=O)N(C2CC2)C1` (centres undefined) and `O=C(CCN1C(=O)C2C3C=CC(C3)C2C1=O)NC1CCCCC1` (centres undefined) cannot be ordered by solubility kinetic: greater than 39.7 µg/mL for the first, greater than 47.5 µg/mL for the second.

Going from `Cn1c(N)c(C(=O)COC(=O)c2cc(S(=O)(=O)N3CCOCC3)ccc2F)c(=O)n(C)c1=O` to `Cc1cccc(NCc2ccc(N(C)C)cc2)n1`, the solubility kinetic falls from greater than 72.7 µg/mL to 27.8 µg/mL (≈ 115 µM).

`C[n+]1cccc(/C=N/Nc2nc(Cl)c(C#N)c(Cl)c2Cl)c1.[Cl-]` showed a solubility kinetic greater than 56.6 µg/mL.
